In PMC12566511, “The Evaluation of (1R,4R,7R,10R)-α,α′,α″,α‴-Tetramethyl-1,4,7,10-tetraazacyclododecane-1,4,7,10-tetraacetic Acid (DOTMA) as a Chelator for Zirconium-89” (Molecules, 2025):
Entries after “also recorded” stand apart in the source; their conditions may differ.

Legend:
[1] = Partition coefficient (LogP), water/octanol partition method; assay type: physicochemical; conditions: octanol/water (pH 5.5), room temperature, n = 5
Protocol: The partition coefficient (LogP) was determined by adding 5 μL of [^89Zr]Zr-DOTMA (~5 μCi; 0.19 MBq) to a mixture of 500 μL of octanol and 500 μL of water (pH 5.5). The resulting solutions (n = 5) were vigorously vortexed for 5 min at room temperature, then centrifuged for 5 min to ensure complete separation of layers. From each of the five sets, a 50 μL aliquot was removed from each phase into new tubes and counted separately in a gamma counter. Each organic phase was washed with water to remove any radioactivity remaining in the organic phase before gamma counting. The partition coefficient was calculated as a ratio of counts in the octanol fraction to counts in the water fraction. The LogP values were reported as an average of five measurements.

[2] = In vitro EDTA challenge study; assay type: physicochemical; conditions: for % Intact of [^89Zr]Zr-Complex (n = 3): 37 °C, radio-ITLC
Protocol: The solutions (n = 3) were incubated at 37 °C for 7 days in a thermomixer. Samples were analyzed at 0, 1, 3, 5, and 7 days post administration to EDTA using radio-TLC, Varian ITLC-SA strips, 50 mM EDTA (pH 5) as the mobile phase, and gamma counting. All studies were performed in triplicate.

[3] = In vitro metal competition study; assay type: physicochemical; conditions: for % Intact of [^89Zr]Zr-Complex (n = 3): PBS pH 7.4, 37 °C, radio-ITLC
Protocol: To separate solutions of metal cations (iron(III) chloride, cobalt(II) chloride, zinc(II) chloride, copper(II) chloride, magnesium(II) chloride, gallium(III) nitrate, and gadolinium(III) chloride) (1.0 mM, 200 μL), [^89Zr]Zr-DOTMA complex (0.1 mM, 20 μL, 110−119 μCi, 4.1–4.4 MBq) in PBS (pH 7.4) was added. The resulting solutions (n = 3) were incubated at 37 °C for 7 days in a thermomixer. Dissociation of ^89Zr from [^89Zr]Zr-DOTMA complex was monitored by radio-TLC at 0, 1, 3, 5, and 7 days using radio-TLC, Varian ITLC-SA strips, 50 mM EDTA (pH 5) as the mobile phase, and gamma counting. All studies were performed in triplicate.

[4] = In vitro serum stability study; assay type: in vitro ADME, human; conditions: for % Intact of [^89Zr]Zr-DOTMA (n = 3) Radio-ITLC / % Intact of [^89Zr]Zr-DOTMA (n = 3) Radio-SE-HPLC: human serum, 37 °C
Protocol: The in vitro serum stability was determined by adding 20 μL of [^89Zr]Zr-DOTMA (113–124 μCi, 4.2–4.6 MBq) to 500 μL of human serum. The solutions (n = 3) were incubated at 37 °C for 7 days and were analyzed daily for 1 week by radio-TLC using Varian ITLC-SA strips, 0.1 M EDTA (pH 5) as the mobile phase, and gamma counting. Samples were also analyzed at 1, 3, 5, and 7 days via size exclusion chromatography (SEC) using a Superdex 200 10/300 GL column (GE Healthcare Life Sciences, Piscataway, NJ, USA) and phosphate buffered saline (PBS) as an eluent with a flow rate of 0.5 mL/min. Fractions (0.5 mL per tube) were collected, and the activity in each fraction was measured in a gamma counter. The percent intact radiopharmaceutical was determined by […] in the chromatogram and multiplying by a factor of 100%.

CC(C(=O)[O-])N1CCN(C(C)C(=O)[O-])CCN(C(C)C(=O)[O-])CCN(C(C)C(=O)[O-])CC1.[89Zr+4] (stereo not shown) [[^89Zr]Zr-DOTMA]
LogP [1]: −2.97± 0.02
stability to excess EDTA challenge (in words) ([2]; 1000-fold excess EDTA, pH 5 or pH 7, seven-day time course): inert; also recorded: stable
% Intact of [^89Zr]Zr-Complex (n = 3) ([2]; EDTA 100-fold, pH 5.0, 0 h): ≥99.99%
% Intact of [^89Zr]Zr-Complex (n = 3) ([2]; EDTA 100-fold, pH 5.0, 1 d): ≥99.99%
% Intact of [^89Zr]Zr-Complex (n = 3) ([2]; EDTA 100-fold, pH 5.0, 3 d): ≥99.99%
% Intact of [^89Zr]Zr-Complex (n = 3) ([2]; EDTA 100-fold, pH 5.0, 5 d): ≥99.99%
% Intact of [^89Zr]Zr-Complex (n = 3) ([2]; EDTA 100-fold, pH 5.0, 7 d): ≥99.99%
% Intact of [^89Zr]Zr-Complex (n = 3) ([2]; EDTA 100-fold, pH 7.0, 0 h): ≥99.99%
% Intact of [^89Zr]Zr-Complex (n = 3) ([2]; EDTA 100-fold, pH 7.0, 1 d): ≥99.99%
% Intact of [^89Zr]Zr-Complex (n = 3) ([2]; EDTA 100-fold, pH 7.0, 3 d): ≥99.99%
% Intact of [^89Zr]Zr-Complex (n = 3) ([2]; EDTA 100-fold, pH 7.0, 5 d): ≥99.99%
% Intact of [^89Zr]Zr-Complex (n = 3) ([2]; EDTA 100-fold, pH 7.0, 7 d): ≥99.99%
% Intact of [^89Zr]Zr-Complex (n = 3) ([2]; EDTA 500-fold, pH 5.0, 0 h): ≥99.99%
% Intact of [^89Zr]Zr-Complex (n = 3) ([2]; EDTA 500-fold, pH 5.0, 1 d): ≥99.99%
% Intact of [^89Zr]Zr-Complex (n = 3) ([2]; EDTA 500-fold, pH 5.0, 3 d): ≥99.99%
% Intact of [^89Zr]Zr-Complex (n = 3) ([2]; EDTA 500-fold, pH 5.0, 5 d): ≥99.99%
% Intact of [^89Zr]Zr-Complex (n = 3) ([2]; EDTA 500-fold, pH 5.0, 7 d): ≥99.99%
% Intact of [^89Zr]Zr-Complex (n = 3) ([2]; EDTA 500-fold, pH 7.0, 0 h): ≥99.99%
% Intact of [^89Zr]Zr-Complex (n = 3) ([2]; EDTA 500-fold, pH 7.0, 1 d): ≥99.99%
% Intact of [^89Zr]Zr-Complex (n = 3) ([2]; EDTA 500-fold, pH 7.0, 3 d): ≥99.99%
% Intact of [^89Zr]Zr-Complex (n = 3) ([2]; EDTA 500-fold, pH 7.0, 5 d): ≥99.99%
% Intact of [^89Zr]Zr-Complex (n = 3) ([2]; EDTA 500-fold, pH 7.0, 7 d): ≥99.99%
% Intact of [^89Zr]Zr-Complex (n = 3) ([2]; EDTA 1000-fold, pH 5.0, 0 h): ≥99.99%
% Intact of [^89Zr]Zr-Complex (n = 3) ([2]; EDTA 1000-fold, pH 5.0, 1 d): ≥99.99%
% Intact of [^89Zr]Zr-Complex (n = 3) ([2]; EDTA 1000-fold, pH 5.0, 3 d): ≥99.99%
% Intact of [^89Zr]Zr-Complex (n = 3) ([2]; EDTA 1000-fold, pH 5.0, 5 d): ≥99.99%
% Intact of [^89Zr]Zr-Complex (n = 3) ([2]; EDTA 1000-fold, pH 5.0, 7 d): ≥99.99%
% Intact of [^89Zr]Zr-Complex (n = 3) ([2]; EDTA 1000-fold, pH 7.0, 0 h): ≥99.99%
% Intact of [^89Zr]Zr-Complex (n = 3) ([2]; EDTA 1000-fold, pH 7.0, 1 d): ≥99.99%
% Intact of [^89Zr]Zr-Complex (n = 3) ([2]; EDTA 1000-fold, pH 7.0, 3 d): ≥99.99%
% Intact of [^89Zr]Zr-Complex (n = 3) ([2]; EDTA 1000-fold, pH 7.0, 5 d): ≥99.99%
% Intact of [^89Zr]Zr-Complex (n = 3) ([2]; EDTA 1000-fold, pH 7.0, 7 d): ≥99.99%
% Intact of [^89Zr]Zr-Complex (n = 3) ([3]; Co^2+, 0 h): ≥99.99%
% Intact of [^89Zr]Zr-Complex (n = 3) ([3]; Co^2+, 1 d): ≥99.99%
% Intact of [^89Zr]Zr-Complex (n = 3) ([3]; Co^2+, 3 d): ≥99.99%
% Intact of [^89Zr]Zr-Complex (n = 3) ([3]; Co^2+, 5 d): ≥99.99%
% Intact of [^89Zr]Zr-Complex (n = 3) ([3]; Co^2+, 7 d): ≥99.99%
% Intact of [^89Zr]Zr-Complex (n = 3) ([3]; Cu^2+, 0 h): ≥99.99%
% Intact of [^89Zr]Zr-Complex (n = 3) ([3]; Cu^2+, 1 d): ≥99.99%
% Intact of [^89Zr]Zr-Complex (n = 3) ([3]; Cu^2+, 3 d): ≥99.99%
% Intact of [^89Zr]Zr-Complex (n = 3) ([3]; Cu^2+, 5 d): ≥99.99%
% Intact of [^89Zr]Zr-Complex (n = 3) ([3]; Cu^2+, 7 d): ≥99.99%
% Intact of [^89Zr]Zr-Complex (n = 3) ([3]; Fe^3+, 0 h): ≥99.99%
% Intact of [^89Zr]Zr-Complex (n = 3) ([3]; Fe^3+, 1 d): ≥99.99%
% Intact of [^89Zr]Zr-Complex (n = 3) ([3]; Fe^3+, 3 d): ≥99.99%
% Intact of [^89Zr]Zr-Complex (n = 3) ([3]; Fe^3+, 5 d): ≥99.99%
% Intact of [^89Zr]Zr-Complex (n = 3) ([3]; Fe^3+, 7 d): ≥99.99%
demetallation when challenged with high concentrations of metal ions (in words) ([3]; Fe^3+, Co^2+, Zn^2+, Cu^2+, Mg^2+, Ga^3+ or Gd^3+ ions, seven-day time course): inert; also recorded: no demetallation
% Intact of [^89Zr]Zr-Complex (n = 3) ([3]; Ga^3+, 0 h): ≥99.99%
% Intact of [^89Zr]Zr-Complex (n = 3) ([3]; Ga^3+, 1 d): ≥99.99%
% Intact of [^89Zr]Zr-Complex (n = 3) ([3]; Ga^3+, 3 d): ≥99.99%
% Intact of [^89Zr]Zr-Complex (n = 3) ([3]; Ga^3+, 5 d): ≥99.99%
% Intact of [^89Zr]Zr-Complex (n = 3) ([3]; Ga^3+, 7 d): ≥99.99%
% Intact of [^89Zr]Zr-Complex (n = 3) ([3]; Gd^3+, 0 h): ≥99.99%
% Intact of [^89Zr]Zr-Complex (n = 3) ([3]; Gd^3+, 1 d): ≥99.99%
% Intact of [^89Zr]Zr-Complex (n = 3) ([3]; Gd^3+, 3 d): ≥99.99%
% Intact of [^89Zr]Zr-Complex (n = 3) ([3]; Gd^3+, 5 d): ≥99.99%
% Intact of [^89Zr]Zr-Complex (n = 3) ([3]; Gd^3+, 7 d): ≥99.99%
% Intact of [^89Zr]Zr-Complex (n = 3) ([3]; Mg^2+, 0 h): ≥99.99%
% Intact of [^89Zr]Zr-Complex (n = 3) ([3]; Mg^2+, 1 d): ≥99.99%
% Intact of [^89Zr]Zr-Complex (n = 3) ([3]; Mg^2+, 3 d): ≥99.99%
% Intact of [^89Zr]Zr-Complex (n = 3) ([3]; Mg^2+, 5 d): ≥99.99%
% Intact of [^89Zr]Zr-Complex (n = 3) ([3]; Mg^2+, 7 d): ≥99.99%
% Intact of [^89Zr]Zr-Complex (n = 3) ([3]; Zn^2+, 0 h): ≥99.99%
% Intact of [^89Zr]Zr-Complex (n = 3) ([3]; Zn^2+, 1 d): ≥99.99%
% Intact of [^89Zr]Zr-Complex (n = 3) ([3]; Zn^2+, 3 d): ≥99.99%
% Intact of [^89Zr]Zr-Complex (n = 3) ([3]; Zn^2+, 5 d): ≥99.99%
% Intact of [^89Zr]Zr-Complex (n = 3) ([3]; Zn^2+, 7 d): ≥99.99%
% Intact of [^89Zr]Zr-DOTMA (n = 3) Radio-ITLC ([4]; 0 h): ≥99.99%
% Intact of [^89Zr]Zr-DOTMA (n = 3) Radio-SE-HPLC ([4]; 0 h): ≥99.99%
% Intact of [^89Zr]Zr-DOTMA (n = 3) Radio-ITLC ([4]; 1 d): ≥99.99%
% Intact of [^89Zr]Zr-DOTMA (n = 3) Radio-SE-HPLC ([4]; 1 d): ≥99.99%
% Intact of [^89Zr]Zr-DOTMA (n = 3) Radio-ITLC ([4]; 3 d): ≥99.99%
% Intact of [^89Zr]Zr-DOTMA (n = 3) Radio-SE-HPLC ([4]; 3 d): ≥99.99%
% Intact of [^89Zr]Zr-DOTMA (n = 3) Radio-ITLC ([4]; 5 d): ≥99.99%
% Intact of [^89Zr]Zr-DOTMA (n = 3) Radio-SE-HPLC ([4]; 5 d): ≥99.99%
% Intact of [^89Zr]Zr-DOTMA (n = 3) Radio-ITLC ([4]; 7 d): ≥99.99%
% Intact of [^89Zr]Zr-DOTMA (n = 3) Radio-SE-HPLC ([4]; 7 d): 99.9 ± 0.1%
association of ^89Zr with serum proteins (in words) ([4]; incubation in human serum, seven-day time course): not associated with the serum proteins
